Usually melting point stands for the temperature of the solid-liquid transition. As for `Cc1nc(N)c2nc(CO)n(NC3CCCC3)c2c1C` [Example 47, (4-Amino-1-cyclopentylamino-6,7-dimethyl-1H-imidazo[4,5-c]pyridin-2-yl)methanol], the melting point lay within 254 to 256 °C.

Take `CCc1nc2c(N)nc(C)c(C)c2n1NC1CCOCC1` [Example 48, 2-Ethyl-6,7-dimethyl-N^1-(tetrahydropyran-4-yl)-1H-imidazo[4,5-c]pyridine-1,4-diamine]: the melting point is 191 to 193 °C.

Molecule `CCOCc1nc2c(N)nc(C)c(C)c2n1NCCCNC(=O)OCC` [Example 49] returned a melting point of 148 to 150 °C.

For `Cc1nc(N)c2nc(CCO)n(NC3CCOCC3)c2c1C` [Example 50, 2-[4-Amino-6,7-dimethyl-1-(tetrahydropyran-4-yl)amino-1H-imidazo[4,5-c]pyridin-2-yl]ethanol], the melting point lay within 190 to 192 °C.

In the case of `COCCc1nc2c(N)nc(C)c(C)c2n1NC1CCOCC1` [Example 51, 2-(2-Methoxyethyl)-6,7-dimethyl-N^1-(tetrahydropyran-4-yl)-1H-imidazo[4,5-c]pyridine-1,4-diamine], the melting point was in the range of 110 to 120 °C.
